Test results reported in patent publication US20250231185A1, “Coronavirus T Cell Epitopes, Megapools and Uses Thereof” (La Jolla Institute for Immunology, priority 2021, published 2025).
“Also recorded” adds a separate entry of the source. Like-named read-outs stand apart in the source and are kept apart here.

Key:
CD4+ T cells [1] = conditions: cited from earlier work; for Allele(s): HLA class II allele(s) identified as MHC restriction elements of the CD4 epitope; for Restriction: T cell subset (CD4 or CD8) recognizing the SARS-CoV-2 epitope; for Allele(s) (HLA restriction): CD4-restricted epitopes, HLA class II alleles identified as MHC restriction elements
CD4+ T cells [2] = experiment: Meta-analysis of published SARS-CoV-2 CD4 T cell epitope data curated in the IEDB (25 studies); assay type: cell-based, human; conditions: CD4R (D) Megapool, non-spike antigens; dominant = recognized in 3 or more donors/studies
[3] = SARS-CoV-2-derived CD4 epitopes, Yes = recognized by 3 or more donors/different studies

Substance | Allele(s) (CD4+ T cells [1]) | Dominant (CD4+ T cells [1]; [3]) | Restriction (CD4+ T cells [1]) | further results
68 (NKDGIIWVATEGALN) [compound 68] | DQB1*02:01, DQB1*02:02,; also recorded: DQB1*03:02, DQB1*05:03,; also recorded: DRB1*04:04, DRB1*07:01 | Yes (more dominant epitopes are defined by being recognized by 3 or more donors/different studies) | CD4 | –
69 (KDGIIWVATEGALNT) [compound 69] | – | Yes (more dominant epitopes are defined by being recognized by 3 or more donors/different studies) | CD4 | –
70 (IWVATEGALNTPKDH) [compound 70] | – | – | CD4 | –
71 (EGALNTPKDHIGTRN) [compound 71] | – | – | CD4 | –
72 (AIVLQLPQGTTLPKG) [compound 72] | – | Yes (more dominant epitopes are defined by being recognized by 3 or more donors/different studies) | CD4 | –
73 (AGNGGDAALALLLLD) [compound 73] | DQB1*03:01, DQB1*06:02 | Yes (more dominant epitopes are defined by being recognized by 3 or more donors/different studies) | CD4 | –
74 (DAALALLLLDRLNQL) [compound 74] | DQB1*05:01, DQB1*05:03,; also recorded: DQB1*06:02, DRB1*03:01,; also recorded: DRB1*11:01, DRB1*12:01,; also recorded: DRB1*14:01, DRB1*15:01 | Yes (more dominant epitopes are defined by being recognized by 3 or more donors/different studies) | CD4 | –
75 (LLLLDRLNQLESKMS) [compound 75] | DQB1*05:01, DRB1*03:01,; also recorded: DRB1*11:01, DRB1*12:01,; also recorded: DRB1*14:01, DRB1*15:01 | Yes (more dominant epitopes are defined by being recognized by 3 or more donors/different studies) | CD4 | –
76 (GKGQQQQGQTVTKKS) [compound 76] | – | – | CD4 | –
77 (AAEASKKPRQKRTAT) [compound 77] | – | Yes (more dominant epitopes are defined by being recognized by 3 or more donors/different studies) | CD4 | –
78 (KKPRQKRTATKAYNV) [compound 78] | – | Yes (more dominant epitopes are defined by being recognized by 3 or more donors/different studies) | CD4 | –
79 (KPRQKRTATKAYNVT) [compound 79] | DPB1*14:01 | – | CD4 | –
80 (KRTATKAYNVTQAFG) [compound 80] | DQB1*06:02, DQB1*06:03 | Yes (more dominant epitopes are defined by being recognized by 3 or more donors/different studies) | CD4 | –
82 (TQAFGRRGPEQTQGN) [compound 82] | – | – | CD4 | –
83 (RRGPEQTQGNFGDQE) [compound 83] | – | – | CD4 | –
84 (FGDQELIRQGTDYKH) [compound 84] | – | – | CD4 | –
85 (LIRQGTDYKHWPQIA) [compound 85] | – | Yes (more dominant epitopes are defined by being recognized by 3 or more donors/different studies) | CD4 | –
86 (TDYKHWPQIAQFAPS) [compound 86] | – | – | CD4 | –
87 (YKHWPQIAQFAPSAS) [compound 87] | – | Yes (more dominant epitopes are defined by being recognized by 3 or more donors/different studies) | CD4 | –
88 (WPQIAQFAPSASAFF) [compound 88] | DQB1*02:02, DQB1*05:03,; also recorded: DRB1*04:04, DRB1*07:01,; also recorded: DRB1*15:01 | Yes (more dominant epitopes are defined by being recognized by 3 or more donors/different studies) | CD4 | –
89 (QFAPSASAFFGMSRI) [compound 89] | DRB1*07:01 | – | CD4 | –
90 (ASAFFGMSRIGMEVT) [compound 90] | DQB1*05:03, DRB1*01:02,; also recorded: DRB1*14:01 | Yes (more dominant epitopes are defined by being recognized by 3 or more donors/different studies) | CD4 | –
91 (AFFGMSRIGMEVTPS) [compound 91] | – | – | CD4 | –

Substance | Allele(s) (CD4+ T cells [1]) | Dominant (CD4+ T cells [1]; [3]) | Restriction (CD4+ T cells [1]) | further results
92 (GMEVTPSGTWLTYTGAIKLD) [compound 92] | – | Yes (more dominant epitopes are defined by being recognized by 3 or more donors/different studies) | CD4 | –
93 (GMEVTPSGTWLTYTG) [compound 93] | – | – | CD4 | –
94 (PSGTWLTYTGAIKLD) [compound 94] | DQB1*06:03, DRB1*01:02,; also recorded: DRB1*01:03, DRB1*07:01,; also recorded: DRB1*15:01 | Yes (more dominant epitopes are defined by being recognized by 3 or more donors/different studies) | CD4 | –
95 (GTWLTYTGAIKLDDK) [compound 95] | – | Yes (more dominant epitopes are defined by being recognized by 3 or more donors/different studies) | CD4 | –
96 (TWLTYTGAIKLDDKDPNF) [compound 96] | – | – | CD4 | –
97 (LTYTGAIKLDDKDPN) [compound 97] | DRB1*07:01 | – | CD4 | –
99 (PNFKDQVILLNKHIDAYK) [compound 99] | – | – | CD4 | –
100 (FKDQVILLNKHIDAY) [compound 100] | DRB1*03:01, DRB1*14:01,; also recorded: DRB1*14:06, DRB1*15:01,; also recorded: DRB1*16:02 | Yes (more dominant epitopes are defined by being recognized by 3 or more donors/different studies) | CD4 | –
101 (ILLNKHIDAYKTFPP) [compound 101] | DRB1*14:06, DRB1*15:01 | Yes (more dominant epitopes are defined by being recognized by 3 or more donors/different studies) | CD4 | –
103 (QKKQQTVTLLPAADL) [compound 103] | DRB1*01:02 | – | CD4 | –
104 (KQQTVTLLPAADLDDF) [compound 104] | – | – | CD4 | –
106 (AADLDDFSKQLQQSM) [compound 106] | – | – | CD4 | –
108 (EEIAIILASFSASTS) [compound 108] | DQB1*02:02, DQB1*03:02,; also recorded: DRB1*04:10, DRB1*07:01 | – | CD4 | –
115 (IATNGPLKVGGSCVL) [compound 115] | DRB1*13:02 | – | CD4 | –
253 (YIINLIIKNLSKSLT) [compound 253] | – | – | – | Allele(s) (HLA restriction) (CD4+ T cells [1]): DRB1*11:02, DRB1*13:03
257 (VKHVYQLRARSVSPK) [compound 257] | – | – | – | Allele(s) (HLA restriction) (CD4+ T cells [1]): DRB1*01:03, DRB1*07:01
258 (QEEVQELYSPIFLIV) [compound 258] | – | – | – | Dominant (CD4+ T cells [1]; CD4 epitopes, dominant = recognized by 3 or more donors/different studies): Yes (more dominant epitopes are defined by being recognized by 3 or more donors/different studies)
2287 (FYVYSRVKNLNSSRV) [compound 2287] | – | – | – | Dominant (CD4+ T cells [2]): Yes (more dominant epitopes are defined by being recognized by 3 or more donors/different studies)
2288 (QFAYANRNRFLYIIK) [compound 2288] | – | – | – | Dominant (CD4+ T cells [2]): Yes (more dominant epitopes are defined by being recognized by 3 or more donors/different studies)
2289 (VLAAVYRINWITGGI) [compound 2289] | – | – | – | Dominant (CD4+ T cells [2]): Yes (more dominant epitopes are defined by being recognized by 3 or more donors/different studies)
2290 (YRINWITGGIAIAMA) [compound 2290] | – | – | – | Dominant (CD4+ T cells [2]): Yes (more dominant epitopes are defined by being recognized by 3 or more donors/different studies)
2291 (CLVGLMWLSYFIASF) [compound 2291] | – | – | – | Dominant (CD4+ T cells [2]): Yes (more dominant epitopes are defined by being recognized by 3 or more donors/different studies)
